In brackets after ≈: the same amount, converted by molar mass.
How the values were obtained:
Format in all cases: functional
Candida dubliniensis [1] = test: […] activity against 5FC- […] Candida dubliniensis isolate SA109T2 harboring plasmid pNIM1 carrying CdFCA1 gene by broth microdilution method in presence of 25 ug/ml DOX
Candida dubliniensis [2] = test: […] activity against Candida dubliniensis isolate SA115 of Cd25 fingerprint group 1 and ITS genotype 1 by CLSI M27-A2 method
Candida albicans [3] = test: […] activity against Candida albicans by EUCAST method
Candida dubliniensis [4] = test: […] activity against 5FC- […] Candida dubliniensis isolate SA109T1 harboring plasmid pNIM1 carrying CdFCA1 gene by broth microdilution method
Candida dubliniensis [5] = test: […] activity against Candida dubliniensis isolate SA109 by broth microdilution method
Candida dubliniensis [6] = test: […] activity against Candida dubliniensis isolate Eg201 of Cd25 fingerprint group 3 and ITS genotype 4 by CLSI M27-A2 method
Candida dubliniensis [7] = test: […] activity against Candida dubliniensis isolate SA113 by broth microdilution method
Candida dubliniensis [8] = test: […] activity against 5FC- susceptible Candida dubliniensis isolate SA113T1 harboring plasmid pNIM1 carrying CdFCA1 gene by broth microdilution method
Candida dubliniensis [9] = test: […] activity against Candida dubliniensis isolate Eg206 of Cd25 fingerprint group 1 and ITS genotype 1 by CLSI M27-A2 method
Candida dubliniensis [10] = test: […] activity against 5FC- […] Candida dubliniensis isolate SA113T1 harboring plasmid pNIM1 carrying CdFCA1 gene by broth microdilution method in presence of 25 ug/ml DOX
Candida dubliniensis [11] = test: […] activity against Candida dubliniensis isolate SA121 of Cd25 fingerprint group 3 and ITS genotype 4 by CLSI M27-A2 method
Candida dubliniensis [12] = test: […] activity against 5FC- resistant Candida dubliniensis isolate harboring plasmid p7276T3 carrying CdFCA1 gene by broth microdilution method in presence of 30 ug/ml DOX
Candida dubliniensis [13] = test: […] activity against Candida dubliniensis isolate Eg203 of Cd25 fingerprint group 1 and ITS genotype 1 by CLSI M27-A2 method
Candida dubliniensis [14] = test: […] activity against Candida dubliniensis isolate Eg202 of Cd25 fingerprint group 3 and ITS genotype 4 by CLSI M27-A2 method
Candida dubliniensis [15] = test: […] activity against 5FC- resistant Candida dubliniensis isolate harboring plasmid p7276T1 carrying CdFCA1 gene by broth microdilution method in presence of 25 ug/ml DOX
Candida dubliniensis [16] = test: […] activity against Candida dubliniensis isolate SA105 of Cd25 fingerprint group 1 and ITS genotype 1 by CLSI M27-A2 method
Candida dubliniensis [17] = test: […] activity against Candida dubliniensis isolate Eg200 of Cd25 fingerprint group 3 and ITS genotype 4 by CLSI M27-A2 method
Candida dubliniensis [18] = test: […] activity against Candida dubliniensis isolate SA107 of Cd25 fingerprint group 3 and ITS genotype 3 by CLSI M27-A2 method
Candida dubliniensis [19] = test: […] activity against Candida dubliniensis isolate SA109 by broth microdilution method in presence of 30 ug/ml DOX
Candida dubliniensis [20] = test: […] activity against 5FC-resistant Candida dubliniensis by NCCLS M27-A2 broth microdilution method
Candida dubliniensis [21] = test: […] activity against Candida dubliniensis isolate SA109 by broth microdilution method in presence of 25 ug/ml DOX
Candida dubliniensis [22] = test: […] activity against Candida dubliniensis harboring plasmid p7276 by broth microdilution method
Candida dubliniensis [23] = test: […] activity against Candida dubliniensis isolate harboring plasmid p7276 carrying GFP1T1 gene by broth microdilution method
Candida dubliniensis [24] = test: […] activity against Candida dubliniensis isolate SA113 by broth microdilution method in presence of 30 ug/ml DOX
Candida dubliniensis [25] = test: […] activity against Candida dubliniensis isolate SA118 of Cd25 fingerprint group 3 and ITS genotype 3 by CLSI M27-A2 method
Candida dubliniensis [26] = test: […] activity against 5FC-susceptible Candida dubliniensis by NCCLS M27-A2 broth microdilution method
Candida dubliniensis [27] = test: […] activity against Candida dubliniensis isolate p7276 of Cd25 fingerprint group 2 and ITS genotype 3 by CLSI M27-A2 method
Candida albicans [28] = test: […] activity against Candida albicans harboring Ser29Leu substitution in the cytosine deaminase gene by EUCAST method
Candida dubliniensis [29] = test: […] activity against 5FC- resistant Candida dubliniensis isolate harboring plasmid p7276T1 carrying CdFCA1 gene by broth microdilution method in presence of 30 ug/ml DOX
Candida dubliniensis [30] = test: […] activity against 5FC- […] Candida dubliniensis isolate SA109T1 harboring plasmid pNIM1 carrying CdFCA1 gene by broth microdilution method in presence of 25 ug/ml DOX
Candida dubliniensis [31] = test: […] activity against 5FC- resistant Candida dubliniensis isolate harboring plasmid p7276T3 carrying CdFCA1 gene by broth microdilution method
Candida dubliniensis [32] = test: […] activity against 5FC- […] Candida dubliniensis isolate SA109T1 harboring plasmid pNIM1 carrying CdFCA1 gene by broth microdilution method in presence of 30 ug/ml DOX
Candida dubliniensis [33] = test: […] activity against 5FC- resistant Candida dubliniensis isolate harboring plasmid p7276T1 carrying CdFCA1 gene by broth microdilution method
Candida dubliniensis [34] = test: […] activity against Candida dubliniensis isolate SA109 of Cd25 fingerprint group 3 and ITS genotype 3 by CLSI M27-A2 method
Candida dubliniensis [35] = test: […] activity against Candida dubliniensis isolate CD36b of Cd25 fingerprint group 1 and ITS genotype 1 by CLSI M27-A2 method
Candida dubliniensis [36] = test: […] activity against Candida dubliniensis isolate p6785 of Cd25 fingerprint group 2 and ITS genotype 3 by CLSI M27-A2 method
Candida dubliniensis [37] = test: […] activity against 5FC- resistant Candida dubliniensis isolate harboring plasmid p7276T2 carrying CdFCA1 gene by broth microdilution method
Candida dubliniensis [38] = test: […] activity against 5FC- resistant Candida dubliniensis isolate harboring plasmid p7276T2 carrying CdFCA1 gene by broth microdilution method in presence of 30 ug/ml DOX
Candida dubliniensis [39] = test: […] activity against 5FC- susceptible Candida dubliniensis isolate SA113T1 harboring plasmid pNIM1 carrying CdFCA1 gene by broth microdilution method in presence of 30 ug/ml DOX
Candida dubliniensis [40] = test: […] activity against Candida dubliniensis harboring plasmid p7276 by broth microdilution method in presence of 25 ug/ml DOX
Candida dubliniensis [41] = test: […] activity against Candida dubliniensis isolate SA101 of Cd25 fingerprint group 1 and ITS genotype 1 by CLSI M27-A2 method
Candida dubliniensis [42] = test: […] activity against 5FC- resistant Candida dubliniensis isolate harboring plasmid p7276T3 carrying CdFCA1 gene by broth microdilution method in presence of 25 ug/ml DOX
Candida dubliniensis [43] = test: […] activity against Candida dubliniensis isolate p7718 of Cd25 fingerprint group 3 and ITS genotype 4 by CLSI M27-A2 method
Candida albicans [44] = test: […] activity against Candida albicans harboring Gly28Asp substitution in the cytosine deaminase gene by EUCAST method
Candida dubliniensis [45] = test: […] activity against 5FC- […] Candida dubliniensis isolate SA109T2 harboring plasmid pNIM1 carrying CdFCA1 gene by broth microdilution method
Candida dubliniensis [46] = test: […] activity against Candida dubliniensis isolate SA113 of Cd25 fingerprint group 3 and ITS genotype 4 by CLSI M27-A2 method
Candida dubliniensis [47] = test: […] activity against Candida dubliniensis isolate SA103 of Cd25 fingerprint group 3 and ITS genotype 3 by CLSI M27-A2 method
Candida dubliniensis [48] = test: […] activity against Candida dubliniensis isolate SA108 of Cd25 fingerprint group 3 and ITS genotype 3 by CLSI M27-A2 method
Candida dubliniensis [49] = test: […] activity against Candida dubliniensis isolate SA100 of Cd25 fingerprint group 3 and ITS genotype 3 by CLSI M27-A2 method
Candida dubliniensis [50] = test: […] activity against Candida dubliniensis isolate Eg207 of Cd25 fingerprint group 3 and ITS genotype 4 by CLSI M27-A2 method
Candida dubliniensis [51] = test: […] activity against Candida dubliniensis isolate harboring plasmid p7276 carrying GFP1T1 gene by broth microdilution method in presence of 25 ug/ml DOX
Candida dubliniensis [52] = test: […] activity against Candida dubliniensis isolate harboring plasmid p7276 carrying GFP1T1 gene by broth microdilution method in presence of 30 ug/ml DOX
Candida dubliniensis [53] = test: […] activity against 5FC- […] Candida dubliniensis isolate SA109T2 harboring plasmid pNIM1 carrying CdFCA1 gene by broth microdilution method in presence of 30 ug/ml DOX
Candida dubliniensis [54] = test: […] activity against 5FC- resistant Candida dubliniensis isolate harboring plasmid p7276T2 carrying CdFCA1 gene by broth microdilution method in presence of 25 ug/ml DOX
Candida dubliniensis [55] = test: […] activity against Candida dubliniensis isolate SA113 by broth microdilution method in presence of 25 ug/ml DOX
Candida dubliniensis [56] = test: […] activity against Candida dubliniensis harboring plasmid p7276 by broth microdilution method in presence of 30 ug/ml DOX

SMILES: Nc1nc(=O)[nH]cc1F [FLUCYTOSINE]
- MIC (Candida dubliniensis [1]): ≤ 0.25 µg/mL
- MIC (Candida dubliniensis [2]): ≤ 0.25 µg/mL
- MIC (Candida albicans [3]): ≥ 0.06 µg/mL
- MIC (Candida dubliniensis [4]): ≥ 128 µg/mL
- MIC (Candida dubliniensis [5]): ≥ 128 µg/mL
- MIC (Candida dubliniensis [6]): ≥ 128 µg/mL
- MIC (Candida dubliniensis [7]): ≥ 128 µg/mL
- MIC (Candida dubliniensis [8]): ≥ 128 µg/mL
- MIC (Candida dubliniensis [9]): ≤ 0.25 µg/mL
- MIC (Candida dubliniensis [10]): ≤ 0.25 µg/mL
- MIC (Candida dubliniensis [11]): ≥ 128 µg/mL
- MIC (Candida dubliniensis [12]): ≤ 0.25 µg/mL
- MIC (Candida dubliniensis [13]): ≤ 0.25 µg/mL
- MIC (Candida dubliniensis [14]): ≥ 128 µg/mL
- MIC (Candida dubliniensis [15]): ≤ 0.25 µg/mL
- MIC (Candida dubliniensis [16]): ≤ 0.25 µg/mL
- MIC (Candida dubliniensis [17]): ≥ 128 µg/mL
- MIC (Candida dubliniensis [18]): ≥ 128 µg/mL
- MIC (Candida dubliniensis [19]): ≥ 128 µg/mL
- MIC (Candida dubliniensis [20]): ≥ 128 µg/mL
- MIC (Candida dubliniensis [21]): ≥ 128 µg/mL
- MIC (Candida dubliniensis [22]): ≤ 0.25 µg/mL
- MIC (Candida dubliniensis [23]): ≤ 0.25 µg/mL
- MIC (Candida dubliniensis [24]): ≥ 128 µg/mL
- MIC (Candida dubliniensis [25]): ≥ 128 µg/mL
- MIC (Candida dubliniensis [26]): ≤ 0.125 µg/mL
- MIC (Candida dubliniensis [27]): ≤ 0.25 µg/mL
- MIC (Candida albicans [28]): 4 µg/mL (≈ 31 µM)
- MIC (Candida dubliniensis [29]): ≤ 0.25 µg/mL
- MIC (Candida dubliniensis [30]): ≤ 0.25 µg/mL
- MIC (Candida dubliniensis [31]): ≤ 0.25 µg/mL
- MIC (Candida dubliniensis [32]): ≤ 0.25 µg/mL
- MIC (Candida dubliniensis [33]): ≤ 0.25 µg/mL
- MIC (Candida dubliniensis [34]): ≥ 128 µg/mL
- MIC (Candida dubliniensis [35]): ≤ 0.25 µg/mL
- MIC (Candida dubliniensis [36]): ≤ 0.25 µg/mL
- MIC (Candida dubliniensis [37]): ≤ 0.25 µg/mL
- MIC (Candida dubliniensis [38]): ≤ 0.25 µg/mL
- MIC (Candida dubliniensis [39]): ≤ 0.25 µg/mL
- MIC (Candida dubliniensis [40]): ≤ 0.25 µg/mL
- MIC (Candida dubliniensis [41]): ≤ 0.25 µg/mL
- MIC (Candida dubliniensis [42]): ≤ 0.25 µg/mL
- MIC (Candida dubliniensis [43]): ≤ 0.25 µg/mL
- MIC (Candida albicans [44]): > 64 µg/mL
- MIC (Candida dubliniensis [45]): ≥ 128 µg/mL
- MIC (Candida dubliniensis [46]): ≥ 128 µg/mL
- MIC (Candida dubliniensis [47]): ≥ 128 µg/mL
- MIC (Candida dubliniensis [48]): ≥ 128 µg/mL
- MIC (Candida dubliniensis [49]): ≥ 128 µg/mL
- MIC (Candida dubliniensis [50]): ≥ 128 µg/mL
- MIC (Candida dubliniensis [51]): ≤ 0.25 µg/mL
- MIC (Candida dubliniensis [52]): ≤ 0.25 µg/mL
- MIC (Candida dubliniensis [53]): ≤ 0.25 µg/mL
- MIC (Candida dubliniensis [54]): ≤ 0.25 µg/mL
- MIC (Candida dubliniensis [55]): ≥ 128 µg/mL
- MIC (Candida dubliniensis [56]): ≤ 0.25 µg/mL

SMILES: O=c1[nH]cc(F)c(=O)[nH]1 [FLUOROURACIL]
- MIC (Candida dubliniensis [2]): 32 µg/mL (≈ 246 µM)
- MIC (Candida dubliniensis [6]): 32 µg/mL (≈ 246 µM)
- MIC (Candida dubliniensis [9]): 32 µg/mL (≈ 246 µM)
- MIC (Candida dubliniensis [11]): 32 µg/mL (≈ 246 µM)
- MIC (Candida dubliniensis [13]): 16 µg/mL (≈ 123 µM)
- MIC (Candida dubliniensis [14]): 32 µg/mL (≈ 246 µM)
- MIC (Candida dubliniensis [16]): 32 µg/mL (≈ 246 µM)
- MIC (Candida dubliniensis [17]): 8 µg/mL (≈ 61.5 µM)
- MIC (Candida dubliniensis [18]): 32 µg/mL (≈ 246 µM)
- MIC (Candida dubliniensis [25]): 32 µg/mL (≈ 246 µM)
- MIC (Candida dubliniensis [27]): 8 µg/mL (≈ 61.5 µM)
- MIC (Candida dubliniensis [34]): 8 µg/mL (≈ 61.5 µM)
- MIC (Candida dubliniensis [35]): 32 µg/mL (≈ 246 µM)
- MIC (Candida dubliniensis [36]): 16 µg/mL (≈ 123 µM)
- MIC (Candida dubliniensis [41]): 16 µg/mL (≈ 123 µM)
- MIC (Candida dubliniensis [43]): 16 µg/mL (≈ 123 µM)
- MIC (Candida dubliniensis [46]): 32 µg/mL (≈ 246 µM)
- MIC (Candida dubliniensis [47]): 32 µg/mL (≈ 246 µM)
- MIC (Candida dubliniensis [48]): 32 µg/mL (≈ 246 µM)
- MIC (Candida dubliniensis [49]): 32 µg/mL (≈ 246 µM)
- MIC (Candida dubliniensis [50]): 32 µg/mL (≈ 246 µM)

Source: ChEMBL document CHEMBL1649254, “A Ser29Leu substitution in the cytosine deaminase Fca1p is responsible for clade-specific flucytosine resistance in Candida dubliniensis” (2009)
